In US20080280855A1, “Process For the Production of Intermediates For the Preparation of Tricyclic Benzimidazoles” (NYCOMED GmbH, priority 2005, published 2008):
Where a name gives a salt, the structure may show the parent alone.

System: pentagastrin-stimulated acid secretion of the perfused rat stomach
Test: Testing of the secretion-inhibiting action on the perfused rat stomach
Conditions: dose 1 μmol/kg i.d. (intraduodenal), anesthetized CD rat, female, continuous i.v. pentagastrin infusion
With `Cc1nc2c3c(c(C(=O)N4CCC4)cc2n1C)CC[C@@H](c1ccccc1)O3` [D, (8S)-Azetidin-1-yl-(2,3-dimethyl-8-phenyl-3,6,7,8-tetrahydro-chromeno[7,8-d]imidazol-5-yl)-methanone] the inhibition in vivo at 1 µmol/kg was > 50%. Work on `Cc1nc2c3c(c(C(=O)N(C)C)cc2n1C)CC[C@@H](c1ccc(F)cc1)O3` [G, (8S)-8-(4-Fluoro-phenyl)-2,3-dimethyl-3,6,7,8-tetrahydro-chromeno[7,8-d]imidazole-5-carboxylic Acid Dimethylamide Hydrochloride] yielded an inhibition in vivo at 1 µmol/kg of 100%. In the case of `CNC(=O)c1cc2c(nc(C)n2C)c2c1CC[C@@H](c1ccccc1)O2` [E, (8S)-2,3-Dimethyl-8-phenyl-3,6,7,8-tetrahydro-chromeno[7,8-d]imidazole-5-carboxylic Acid Methylamide], the inhibition in vivo at 1 µmol/kg is reported as > 80%. In the case of `Cc1ccccc1[C@@H]1CCc2c(C(=O)N3CCC3)cc3c(nc(C)n3C)c2O1` [Q, (8S)-Azetidin-1-yl-(2,3-dimethyl-8-o-tolyl-3,6,7,8-tetrahydro-chromeno[7,8-d]imidazol-5-yl)-methanone], the inhibition in vivo at 1 µmol/kg is reported as 100%. In the case of `Cc1nc2c3c(c(C(=O)N(C)C)cc2n1C)CC[C@@H](c1ccccc1F)O3` [F, (8S)-8-(2-Fluoro-phenyl)-2,3-dimethyl-3,6,7,8-tetrahydro-chromeno[7,8-d]imidazole-5-carboxylic Acid Dimethylamide], the inhibition in vivo at 1 µmol/kg is reported as > 70%. `Cc1ccccc1[C@@H]1CCc2c(C(=O)NC3CC3)cc3c(nc(C)n3C)c2O1` [W, (8S)-2,3-Dimethyl-8-o-tolyl-3,6,7,8-tetrahydro-chromeno[7,8-d]imidazole-5-carboxylic acid cyclopropylamide] showed an inhibition in vivo at 1 µmol/kg of 100%. With `Cc1nc2c3c(c(C(=O)N(C)C)cc2n1C)CC[C@@H](c1ccccc1)O3` [A, (8S)-2,3-Dimethyl-8-phenyl-3,6,7,8-tetrahydro-chromeno[7,8-d]imidazole-5-carboxylic Acid Dimethylamide] the inhibition in vivo at 1 µmol/kg was > 60%. In the case of `Cc1ccccc1[C@@H]1CCc2c(C(=O)N3CCCC3)cc3c(nc(C)n3C)c2O1` [O, (8S)-(2,3-Dimethyl-8-o-tolyl-3,6,7,8-tetrahydro-chromeno[7,8-d]imidazol-5-yl)-pyrrolidin-1-yl-methanone], the inhibition in vivo at 1 µmol/kg is reported as > 60%. With `Cc1nc2c3c(c(C(=O)N(C)C)cc2[nH]1)CC[C@@H](c1ccccc1)O3` [C, (8S)-2-Methyl-8-phenyl-3,6,7,8-tetrahydro-chromeno[7,8-d]imidazole-5-carboxylic Acid Dimethylamide] the inhibition in vivo at 1 µmol/kg was > 90%. `CNC(=O)c1cc2c(nc(C)n2C)c2c1CC[C@@H](c1ccccc1C)O2` [P, (8S)-2,3-Dimethyl-8-o-tolyl-3,6,7,8-tetrahydro-chromeno[7,8-d]imidazole-5-carboxylic Acid Methylamide] showed an inhibition in vivo at 1 µmol/kg of 100%. In the case of `Cc1nc2c3c(c(C(=O)N(C)C)cc2n1C)CC[C@@H](c1ccccc1Cl)O3` [I, (8S)-8-(2-Chloro-phenyl)-2,3-dimethyl-3,6,7,8-tetrahydro-chromeno[7,8-d]imidazol-5-carboxylic Acid Dimethylamide], the inhibition in vivo at 1 µmol/kg is reported as > 70%. `Cc1cc(F)ccc1[C@@H]1CCc2c(C(=O)N(C)C)cc3c(nc(C)n3C)c2O1` [N, (8S)-8-(4-Fluoro-2-methyl-phenyl)-2,3-dimethyl-3,6,7,8-tetrahydro-chromeno[7,8-d]imidazole-5-carboxylic Acid Dimethylamide] showed an inhibition in vivo at 1 µmol/kg of 100%. Molecule `Cc1sccc1[C@@H]1CCc2c(C(=O)N(C)C)cc3c(nc(C)n3C)c2O1` [V, (8S)-2,3-Dimethyl-8-(2-methyl-thiophen-3-yl)-3,6,7,8-tetrahydro-chromeno[7,8-d]imidazole-5-carboxylic acid dimethylamide] has an inhibition in vivo at 1 µmol/kg of 100%.

Same assay, conditions: dose 1 μmol/kg i.d. (intraduodenal), in vivo, anesthetized CD rat, female; continuous i.v. pentagastrin infusion
With `CCc1ccccc1[C@@H]1CCc2c(C(=O)N(C)C)cc3c(nc(C)n3C)c2O1` [L, (8S)-(2-Ethyl-phenyl)-2,3-dimethyl-3,6,7,8-tetrahydro-chromeno[7,8-d]imidazole-5-carboxylic Acid Dimethylamide] the “Inhibition of acid secretion (%)” value was >70%. For `Cc1ccccc1[C@@H]1CCc2c(C(=O)N(C)C)cc3c(nc(C)n3C)c2O1` [H, (8S)-2,3-Dimethyl-8-o-tolyl-3,6,7,8-tetrahydro-chromeno[7,8-d]imidazole-5-carboxylic Acid Dimethylamido], the “Inhibition of acid secretion (%)” value was 100%.

System: not given
Test: not given
Conditions: not given
In the case of `CCc1ccccc1[C@H](O)CCc1c(C(=O)N(C)C)cc2c(nc(C)n2C)c1O` [Example 11, (3R)-6-[3-(2-Ethyl-phenyl)-3-hydroxy-propyl]-7-hydroxy-2,3-dimethyl-3H-benzoimidazole-5-carboxylic Acid Dimethylamide], the melting point is reported as 135 to 137 °C. Work on `Cc1ccccc1[C@@H](O)CCc1c(C(=O)N(C)C)cc2c(nc(C)n2C)c1O` [Example 25, (3S)-7-Hydroxy-6-(3-hydroxy-3-o-tolyl-propyl)-2,3-dimethyl-3H-benzoimidazole-5-carboxylic Acid Dimethylamide] yielded a melting point of 203 to 205 °C. Molecule `Cc1nc2c(O)c(CC[C@@H](O)c3ccc4ccccc4c3)c(C(=O)N(C)C)cc2n1C` [Example 10, (3R)-7-Hydroxy-6-(3-hydroxy-3-naphthalen-2-yl-propyl)-2,3-dimethyl-3H-benzoimidazole-5-carboxylic Acid Dimethylamide] has a melting point of 145 to 147 °C. `Cc1nc2c3c(c(C(=O)N(C)C)cc2[nH]1)CC[C@@H](c1ccccc1)O3` [C, (8S)-2-Methyl-8-phenyl-3,6,7,8-tetrahydro-chromeno[7,8-d]imidazole-5-carboxylic Acid Dimethylamide] gave a melting point of 215 to 216 °C. For `CNC(=O)c1cc2c(nc(C)n2C)c(O)c1CC[C@@H](O)c1ccccc1` [Example 4, (3R)-7-Hydroxy-6-(3-hydroxy-3-phenyl-propyl)-2,3-dimethyl-3H-benzoimidazole-5-carboxylic Acid Methylamide], the melting point was 247 to 249 °C. `Cc1ccccc1[C@H](O)CCc1c(C(=O)N(C)C)cc2c(nc(C)n2C)c1O` [Example 7, (3R)-7-Hydroxy-6-(3-hydroxy-3-o-tolyl-propyl)-2,3-dimethyl-3H-benzoimidazole-5-carboxylic Acid Dimethylamide] showed a melting point of 139 to 140 °C. Work on `Cc1nc2c(O)c(CC[C@@H](O)c3cccs3)c(C(=O)N(C)C)cc2n1C` [Example 12, (3R)-7-Hydroxy-6-(3-hydroxy-3-thiophen-2-yl-propyl)-2,3-dimethyl-3H-benzoimidazole-5-carboxylic Acid Dimethylamide] yielded a melting point of 264 to 265 °C. Molecule `Cc1nc2c(O)c(CC[C@@H](O)c3ccccc3)c(C(=O)N3CCC3)cc2n1C` [Example 3, (3R)-Azetidin-1-yl-[7-hydroxy-6-(3-hydroxy-3-phenyl-propyl)-2,3-dimethyl-3H-benzoimidazol-5-yl]-methanone] has a melting point of 265 to 266 °C. With `Cc1nc2c(O)c(CC[C@@H](O)c3ccccc3)c(C(=O)N(C)C)cc2n1COCC[Si](C)(C)C` the melting point was 142 to 143 °C. `Cc1nc2c(O)c(CC[C@@H](O)c3ccc(F)cc3)c(C(=O)N(C)C)cc2n1C` [Example 6, (3R)-6-[3-(4-Fluoro-phenyl)-3-hydroxy-propyl]-7-hydroxy-2,3-dimethyl-3H-benzoimidazole-5-carboxylic Acid Dimethylamide] showed a melting point of 276 to 277 °C.
